These results are taken from ChEMBL document CHEMBL1201862, “PubChem BioAssay data set” (2004).

Some test systems named below: RPMI-8226; SF-539; T47D; Hs-578T; IGROV-1; HOP-62; EKVX; NCI-H23; HOP-92; SK-MEL-5; UO-31; SW-620; SK-MEL-28; Malme-3M; SNB-75; RXF 393; NCI-H522; OVCAR-3; HCT-15; SF-295.
Test in all cases: growth of human tumour cells (NCI), 48 h

Structures are written as SMILES.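 Tested at 5 concentrations; 48 h exposure; 96-well plates; endpoints linearly interpolated, else capped at highest concentration. GI50 is the concentration that inhibits growth by half.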 Active and inactive are the calls of the source. Rule as the data show it: active = GI50 up to about 1.1 µM and inactive = higher.

In the case of `O=C(CSCC(=O)N/N=C/c1cccc(O)c1)N/N=C/c1cccc(O)c1`, the GI50 in the test with RPMI-8226, in the test with SF-539, in the test with T47D, in the test on Hs-578T, in the test with IGROV-1 and in the test on HOP-62 was > 100 µM (inactive) each time. In addition, the GI50 in the test with EKVX, in the test on NCI-H23, in the test on HOP-92, with SK-MEL-5, in the test on UO-31 and in the test with SW-620 was > 100 µM (inactive) in each case. The GI50 in the test with SK-MEL-28, in the test with Malme-3M, in the test with SNB-75, in the test on RXF 393, in the test with NCI-H522 and in the test on OVCAR-3 was > 100 µM (inactive) throughout. The figures for the GI50 with HCT-15 and in the test on SF-295 were over 100 µM and > 100 µM (inactive), respectively.
For the compound `C=C(C)[C@@H](O)[C@H](O)C[C@H](C)C1CC[C@]2(C)C1=CC[C@@H]1[C@@]3(C)CC[C@@H](OC(C)=O)C(C)(C)[C@@H]3C[C@@H](OC3OC(COC(C)=O)C(O)C(O)C3O)[C@]12C` (stereo not given in full), the GI50 with RPMI-8226 is 2.01 µM (inactive); with SF-539, 3.66 µM (inactive); in the test on T47D, 2.48 µM (inactive); with Hs-578T, 2.81 µM (inactive); in the test with IGROV-1, 2.4 µM (inactive); in the test on HOP-62, 2.99 µM (inactive). Moreover, the GI50 was 3.03 µM (inactive) with EKVX; 4.06 µM (inactive) in the test on NCI-H23; 2.37 µM (inactive) in the test on HOP-92; 2.1 µM (inactive) in the test with SK-MEL-5; 3.48 µM (inactive) in the test with UO-31; 3.34 µM (inactive) in the test with SW-620. Besides, the GI50 in the test with SK-MEL-28 is 2.54 µM (inactive); with Malme-3M it was 2.06 µM (inactive); in the test with SNB-75, 2.45 µM (inactive); with RXF 393, 1.98 µM (inactive); with NCI-H522 it was 1.67 µM (inactive); with OVCAR-3, 2.17 µM (inactive). The GI50 was 3.37 µM in the test on HCT-15 and 2.16 µM (inactive) in the test on SF-295.
Take `Nc1ncc(Cl)c(NCC2(CO)CC(CCc3ccccc3)C2)n1` (stereo not given): the GI50 is 2.79 µM (inactive) in the test with RPMI-8226; > 100 µM (inactive) in the test on SF-539; 1.07 µM (active) in the test with T47D; > 100 µM (inactive) in the test on Hs-578T; > 100 µM (inactive) with IGROV-1; > 100 µM (inactive) with HOP-62. Also, the GI50 in the test with EKVX is > 24.9 µM (inactive); with NCI-H23, > 100 µM (inactive); in the test on HOP-92 it was 5.69 µM (inactive); with SK-MEL-5, 0.38 µM (active); in the test on UO-31, > 100 µM (inactive); in the test with SW-620 it was > 100 µM (inactive). Also, the GI50 in the test on SK-MEL-28 was > 100 µM (inactive); with Malme-3M it was > 100 µM (inactive); in the test on SNB-75 it was 46.2 µM (inactive); in the test with RXF 393, > 100 µM (inactive); in the test on NCI-H522 it was > 76.2 µM (inactive); in the test with OVCAR-3, > 100 µM (inactive). For the same compound, the results for the GI50 in the test on HCT-15 and in the test on SF-295 were over 100 µM and 5.2 µM (inactive), respectively.
